Measured values published in patent US20050069498A1, “Method for identifying metabotropic glutamate receptor agonists and potentiators” (priority 2003, published 2005).

Tested on: VHipp norepinephrine (NE) release
Assay: Ketamine challenge: norepinephrine release in ventral hippocampus by in vivo microdialysis
Conditions: three ketamine doses vs vehicle control, 20 min intervals over 120 min, time course and AUC (FIG. 2, 3)

Question: Which results are given for CNC1(c2ccccc2Cl)CCCCC1=O (centres unmarked) [Ketamine]?
Answer: VHipp norepinephrine (NE) release after ketamine challenge: dose dependent increase; VHipp norepinephrine (NE) release after ketamine challenge (listed as ketamine): greater area under the curve
